Measurements taken from patent US5409899A, “Pseudopeptide compounds having anti-inflammatory activity” (Adir et Compagnie, priority 1992, dated 1995).
Where a name gives a salt, the structure may show the parent alone. Square brackets hold non-standard residues; d marks the D form. Peptide text beside a SMILES is read from it. * marks the point of attachment. Benzoyl(4-guanidino) = N=C(N)Nc1ccc(C(=O)*)cc1; Oic = O=C(O)[C@@H]1C[C@@H]2CCCC[C@@H]2N1; Hyp = O=C(O)[C@@H]1C[C@@H](O)CN1; dTic = O=C(O)[C@H]1Cc2ccccc2CN1; 2Thi = N[C@@H](Cc1cccs1)C(=O)O

Biological target: T1, B2 receptor (Oryctolagus cuniculus, UniProt Q28642)
T1 construct: rabbit jugular vein: B2 receptor; from tissue; host or cells: rabbit jugular vein
T1 sequence (Q28642 1-367): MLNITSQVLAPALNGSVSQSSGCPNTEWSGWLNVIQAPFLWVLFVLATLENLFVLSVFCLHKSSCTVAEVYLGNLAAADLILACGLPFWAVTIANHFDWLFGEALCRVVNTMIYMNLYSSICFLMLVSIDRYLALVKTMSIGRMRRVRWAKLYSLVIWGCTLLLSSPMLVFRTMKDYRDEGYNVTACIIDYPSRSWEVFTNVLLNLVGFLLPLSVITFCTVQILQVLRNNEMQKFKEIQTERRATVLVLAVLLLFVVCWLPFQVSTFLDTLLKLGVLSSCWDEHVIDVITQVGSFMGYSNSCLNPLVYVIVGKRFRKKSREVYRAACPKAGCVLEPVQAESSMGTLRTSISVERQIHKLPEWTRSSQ
Experiment: Inhibition of bradykinin-induced contraction of rabbit jugular vein (B2 receptor)
Assay type: cell-based
Details: read-out: pA2 (negative logarithm of the molar concentration which necessitates a doubling of the bradykinin concentration to obtain the same effect) (converted)
Description: Pharmacological study of the compound of the invention: rabbit jugular vein: B2 receptor

For `N=C(N)NCCC[C@H](NC(=O)[C@@H]1C[C@@H]2CCCC[C@@H]2N1C(=O)[C@H]1Cc2ccccc2CN1C(=O)[C@H](CO)NC(=O)[C@H](Cc1cccs1)NC(=O)CNC(=O)[C@@H]1C[C@@H](O)CN1C(=O)[C@@H]1CCCN1C(=O)[C@H](CCCNC(=N)N)NC(=O)c1ccc(NC(=N)N)cc1)C(=O)O` [Example 1, G-Arg-Pro-Hyp-Gly-Thia-Ser-(D)Tic-Oic-Arg-OH trifluoroacetate] ({Benzoyl(4-guanidino)}-RP[Hyp]G[2Thi]S[dTic][Oic]R-OH), the Kb was 186 pM.
